This note sets out measurements from patent US9833495B2, “Oral treatment of inflammatory bowel disease” (Defensin Therapeutics ApS, priority 2011, dated 2017).

This series deals with DSS-induced colitis in male C57BL/6 mice. In words: 10-Day Dextran Sodium Sulphate (DSS)-induced colitis model in the mouse. It is filed as in vivo. As to conditions: for additional DAI score without change in body weight (only stool consistency and rectal bleeding): oral, 10-day treatment. The source says: 10-Day Dextran Sodium Sulphate (DSS)-Induced Colitis Model in the Mouse
The aim of the following study was to determine the anti-inflammatory activity of human beta defensin 2 in an acute (10-days) model of inflammatory bowel disease (colitis) induced by oral dextran sodium sulphate (DSS) administration in the mouse.
Study design: animals were divided into 5 experimental groups. Each group consisted of 10 males: Group A: Treated with Control vehicle (PBS) p.o. twice daily. Group B: Treated with methylprednisolone (1 mg/kg p.o. twice daily). Group C: Treated with hBD2 (0.05 mg/kg p.o. twice daily). Group D: Treated with hBD2 (0.5 mg/kg p.o. daily). Group E: Treated with hBD2 (5 mg/kg p.o. […]). Animal allocation to all experimental groups was done in a randomized manner. A maximum of 5 mice were housed in each cage (as per Directive 86/609/EEC). All animals were weighed on their arrival at the laboratory and prior to the administration of the test items.
The control vehicle and hBD2 were administered orally with the use of a sterile cannula in a dosing volume of 10 ml/kg body weith. The animals of all groups received 2 doses daily (at 9.00 h and 17.00 h) of the corresponding test item (test, reference or vehicle) for 10 consecutive days (experimental days 1-10).
Colitis was induced in mice by supplementing their drinking water with DSS 2% for 7 days. On Day 1 all mice were weighed and marked according to their experimental groups. The drinking bottle of each cage was filled with the DSS solution, making sure all bottle lids were mounted properly and that none were congested. On Day 3 any remaining solution in the bottles was emptied and refilled with fresh DSS solution. This procedure was repeated again on Day 5. On Day 8 any remaining solution was discarded and replaced with autoclaved water. Animals were sacrificed 2 days later on Day 10.
Daily clinical assessment of DSS-treated animals was carried out, with the calculation of a validated clinical Disease Activity Index (DAI) ranging from 0 to 4 according to the following parameters: stool consistency, presence or absence of rectal bleeding and weight loss:
Bodyweight loss was calculated as the percent difference between the original bodyweight (Day 1) and the actual bodyweight on each experimental day (2-10). The appearance of diarrhoea is defined as mucus/faecal material adherent to anal fur. Rectal bleeding is defined as diarrhoea containing visible blood/mucus or gross rectal bleeding. The maximum score of the DAI each day is 12.
On day 10, two hours after the last administration of control vehicle, hBD2 or prednisolone, the animals were killed by an overdose of anaesthetic. Their colons were removed and their length and weight measured after exclusion of the caecum. Two sections (proximal and distal) of colon were taken from each animal and preserved in neutral buffered formalin for subsequent histological analysis (haematoxylin and eosin staining) according to the following scoring system:
Description Score: No changes observed (0). Minimal scattered mucosal inflammatory cell infiltrates, with or without minimal epithelial hyperplasia (1). Mild scattered to diffuse inflammatory cell infiltrates, sometimes extending into the submucosa and associated with erosions, with minimal to mild epithelial hyperplasia and minimal to mild mucin depletion from goblet cells (2). Mild to moderate inflammatory cell infiltrates that were sometimes transmural, often associated with ulceration, with moderate epithelial hyperplasia and mucin depletion (3). Marked inflammatory cell infiltrates that were often transmural and associated with ulceration, with marked epithelial hyperplasia and mucin depletion (4). Marked transmural inflammation with severe ulceration and loss of intestinal glands (5). […]

Where [1] appears, read: 1 mg/kg p.o. twice daily (Group B), day 10.

Take “Human beta defensin 2 (GIGDPVTCLKSGAICHPVFCPRRYKQIGTCGLPGTKCCKKP; mat_peptide; listed as Homo sapiens) [NZ39000]”: the “additional DAI score without change in body weight (only stool consistency and rectal bleeding)” value is “very significant anti-inflammatory activity”. Also, the “severity of disease parameters” value (10-Day DSS-induced colitis model in the mouse) is “significantly reduce”. The “Disease Activity Index (DAI)” value (hBD2 0.05 mg/kg p.o., Day 10, mean ± SEM, n=10, P < 0.05 vs vehicle) is listed as 8 ± 0.73. Also, the “body weight vs control group” value (high dose of test item, day 10 (P<0.05)) is recorded as “significant increase”. Moreover, the “histological damage score of proximal and distal colons” value (orally administered, day 10) is “very significant reduction”. Moreover, the “effect on disease activity index (DAI) vs vehicle” value (three dose levels (0.05, 0.5, 5 mg/kg) via the oral route) is given as “significant inhibition”. Where the note is “twice daily, at 3 dose levels, p.o., day 10”, the “histological damage in the proximal colon” value is listed as “significant reduction”. The “histological damage in the distal colon” value (twice daily, intermediate and high dose levels, p.o., day 10) was “significant reduction”.
Turning to `C[C@H]1C[C@@H]2[C@H]([C@@H](O)C[C@@]3(C)[C@H]2CC[C@]3(O)C(=O)COC(=O)CCC(=O)O)[C@@]2(C)C=CC(=O)C=C12` [Methylprednisolone 21-hemisuccinate, reference compound], the “additional DAI score without change in body weight (only stool consistency and rectal bleeding)” value is “very significant anti-inflammatory activity”. Under setting [1], the “histological injury induced by DSS in the distal colon” value is “significantly reduced” and the “histological injury induced by DSS in the proximal colon” value was “significantly reduced”. Where the note is “group B, from day 2 until the end of the study”, the body weight result is recorded as “significant decrease”. For the same compound, the “effect on disease activity index (DAI) vs vehicle” value (reference item, 1 mg/kg p.o. twice daily) is “significant inhibition”.
